Results taken from patent US7645752B2, “Sulfonyl substituted 1H-indoles as ligands for the 5-hydroxytryptamine receptors” (Wyeth LLC, priority 2006, dated 2010).
Counter-ions that a name gives are not always drawn.

Tested on: not given
Assay: not given
Conditions: not given

| melting point | SMILES |
| --- | --- |
| 205 to 208 °C (dec.) | CN(C)CCc1cccc2c(S(=O)(=O)c3ccccc3)c[nH]c12 (as salt: hydrochloride) [Example 18, N,N-dimethyl-N-{2-[3-(phenylsulfonyl)-1H-indol-7-yl]ethyl}amine] |
| 185 to 187 °C | CC(C)NCCc1cccc2[nH]cc(S(=O)(=O)c3ccccc3)c12 (as salt: hydrochloride) [Example 35, N-{2-[3-(phenylsulfonyl)-1H-indol-4-yl]ethyl}propan-2-amine] |
| 187 to 188 °C | CNCCc1cccc2c(S(=O)(=O)c3ccccc3)c[nH]c12 (as salt: hydrochloride) [Example 19, N-methyl-N-{2-[3-(phenylsulfonyl)-1H-indol-7-yl]ethyl}amine] |
| 205 to 208 °C | O=S(=O)(c1ccccc1)c1c[nH]c2ccc(CCNC3CC3)cc12 (as salt: hydrochloride) [Example 4, N-{2-[3-(phenylsulfonyl)-1H-indol-5-yl]ethyl}cyclopropanamine] |
| 190 °C | O=S(=O)(c1ccccc1)c1c[nH]c2c(CCN3CCNCC3)cccc12 (as salt: hydrochloride) [Example 30, 3-(phenylsulfonyl)-7-(2-piperazin-1-ylethyl)-1H-indole] |
| 251 °C | CN(C)CCc1ccc2[nH]cc(S(=O)(=O)c3ccccc3)c2c1 (as salt: hydrochloride) [Example 1, N,N-dimethyl-N-{2-[3-(phenylsulfonyl)-1H-indol-5-yl]ethyl}amine] |
| 145 to 150 °C | O=S(=O)(c1ccccc1)c1c[nH]c2cccc(CCNC3CC3)c12 (as salt: hydrochloride) [Example 36, N-{2-[3-(phenylsulfonyl)-1H-indol-4-yl]ethyl}cyclopropanamine] |

| SMILES | melting point |
| --- | --- |
| NCCc1ccc2[nH]cc(S(=O)(=O)c3ccccc3)c2c1 (as salt: hydrochloride) [Example 12, {2-[3-(phenylsulfonyl)-1H-indol-5-yl]ethyl}amine] | 200 °C |
| O=S(=O)(c1ccccc1)c1c[nH]c2cccc(CCNC3CCCCC3)c12 (as salt: hydrochloride) [Example 39, N-{2-[3-(phenylsulfonyl)-1H-indol-4-yl]ethyl}cyclohexanamine] | 241 °C |

Molecular target: T1, human cloned 5-HT6 receptors (Homo sapiens, UniProt P50406)
T1 construct: expressed in transfected cells; host or cells: HeLa cells
Assay: 5-HT6 binding affinity, [3H]-LSD displacement on membranes of Hela cells
Conditions: not given
Procedure: The affinity of test compounds for the 5-HT6 receptor is evaluated in the following manner. Cultured Hela cells expressing human cloned 5-HT6 receptors are harvested and centrifuged at low speed (1,000×g) for 10.0 min to remove the culture media. The harvested cells are suspended in half volume of fresh physiological phosphate buffered saline solution and recentrifuged at the same speed. This operation is repeated. The collected cells are then homogenized in ten volumes of 50 mM Tris.HCl (pH 7.4) and 0.5 mM EDTA. The homogenate is centrifuged at 40,000×g for 30.0 min and the precipitate is collected. The obtained pellet is resuspended in 10 volumes of Tris.HCl buffer and recentrifuged at the same speed. The final pellet is suspended in a small volume of Tris.HCl buffer and the tissue protein content is determined in aliquots of 10-25 microliter volumes. […] The volume of the suspended cell membranes is adjusted to give a tissue protein concentration of 1.0 mg/mL of suspension. The prepared membrane suspension (10 times concentrated) is aliquoted in 1.0 mL volumes and stored at −70° C. until used in subsequent binding experiments.
Binding experiments are performed in a 96 well microtiter plate format in a total volume of 200 microliters. […] The test compounds are added in 20.0 microliter volume.
The bound complex caught on the filter disk is allowed to air dry and the radioactivity is measured in a Packard TopCount® equipped with six photomultiplier detectors, after the addition of 40.0 microliter Microscint®-20 scintillant to each shallow well.
Binding in the presence of varying concentrations of test compound is expressed as a percentage of specific binding in the absence of test compound. The results are plotted as log % bound versus log concentration of the test compound.

T1 sequence (P50406 whole entry): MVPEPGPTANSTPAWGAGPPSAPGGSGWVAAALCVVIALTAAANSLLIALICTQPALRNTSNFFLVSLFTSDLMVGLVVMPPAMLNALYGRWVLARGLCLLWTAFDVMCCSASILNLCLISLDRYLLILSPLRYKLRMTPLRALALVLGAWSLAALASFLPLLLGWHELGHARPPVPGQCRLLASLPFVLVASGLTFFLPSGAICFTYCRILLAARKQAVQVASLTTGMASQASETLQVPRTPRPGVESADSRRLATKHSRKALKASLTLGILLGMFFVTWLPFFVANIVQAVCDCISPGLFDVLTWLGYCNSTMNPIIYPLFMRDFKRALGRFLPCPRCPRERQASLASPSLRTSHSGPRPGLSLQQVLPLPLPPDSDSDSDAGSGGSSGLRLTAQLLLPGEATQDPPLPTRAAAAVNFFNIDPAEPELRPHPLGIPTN

| SMILES | Ki [nM] |
| --- | --- |
| CC(C)NCCc1ccc2[nH]cc(S(=O)(=O)c3ccccc3)c2c1 [Example 3, N-{2-[3-(phenylsulfonyl)-1H-indol-5-yl]ethyl}propan-2-amine] | 56.7 |

Same assay, conditions: Table 1; 5-HT6 binding, at 1 micromole; read-out: % inhibition at 1 micromole

| SMILES | inhibition at 1 µM [%] |
| --- | --- |
| CCC(C)CNCCc1ccc2c(S(=O)(=O)c3ccccc3)c[nH]c2c1 (stereo not shown) [Example 104, {2-[3-(phenylsulfonyl)-1H-indol-6-yl]-ethyl}-(2-methyl-butyl)-amine] | 69 |
| CN(C)CCCNCCc1cccc2[nH]cc(S(=O)(=O)c3cccc(F)c3)c12 [Example 83, N′-{2-[3-(3-Fluorophenylsulfonyl)-1H-indol-4-yl]-ethyl}-N,N-dimethyl-propane-1,3-diamine] | 42 |
| CC(C)NCCc1cccc2[nH]cc(S(=O)(=O)c3cccc(F)c3)c12 [Example 66, N-{2-[3-(3-fluorophenylsulfonyl)-1H-indol-4-yl]ethyl}propan-2-amine] | 58 |
| CC(C)(C)CNCCc1ccc2c(S(=O)(=O)c3ccccc3)c[nH]c2c1 [Example 106, N-(2,2-dimethylpropyl)-N-{2-[3-(phenylsulfonyl)-1H-indol-6-yl]ethyl}amine] | 67 |
| O=S(=O)(c1cccc(F)c1)c1c[nH]c2cccc(CCN3CCOCC3)c12 [Example 76, 4-(2-morpholin-4-ylethyl)-3-(3-fluorophenylsulfonyl)-1H-indole] | 62 |
| O=S(=O)(c1ccccc1)c1c[nH]c2cc(CCN3CCNCC3)ccc12 [Example 101, 3-phenylsulfonyl-6-(2-piperazin-1-yl-ethyl)-1H-indole] | 55 |
| O=S(=O)(c1cccc(F)c1)c1c[nH]c2cccc(CCN3CCCCC3)c12 [Example 75, 3-(3-fluorophenylsulfonyl)-4-(2-piperidin-1-ylethyl)-1H-indole] | 69 |
| O=S(=O)(c1cccc(F)c1)c1c[nH]c2cccc(CCNCC3CCCO3)c12 (stereo not shown) [Example 82, N-{2-[3-(3-fluorophenylsulfonyl)-1H-indol-4-yl]ethyl}-N-((tetrahydrofur-2-yl)methyl)amine] | 72 |

The remaining lines, values ahead:

| inhibition at 1 µM [%] | SMILES |
| --- | --- |
| 73 | CN(CCO)CCc1cccc2[nH]cc(S(=O)(=O)c3cccc(F)c3)c12 [Example 84, 2-({2-[3-(3-Fluorophenylsulfonyl)-1H-indol-4-yl]-ethyl}-methyl-amino)-ethanol] |
| 55 | CC(NCCc1ccc2c(S(=O)(=O)c3ccccc3)c[nH]c2c1)C(C)(C)C (stereo not shown) [Example 105, N-{2-[3-(phenylsulfonyl)-1H-indol-6-yl]ethyl}-N-(1,2,2-trimethylpropyl)amine] |
| 76 | O=S(=O)(c1ccccc1)c1c[nH]c2cc(CCN3CCCC3)ccc12 [Example 98, 3-(phenylsulfonyl)-6-(2-pyrrolidin-1-ylethyl)-1H-indole] |
| 54 | O=S(=O)(c1ccccc1)c1c[nH]c2cccc(CCC3CNCCO3)c12 (stereo not shown) [Example 100, 4-(2-morpholin-6-ylethyl)-3-(phenylsulfonyl)-1H-indole] |
| 67 | CCCNCCc1cccc2[nH]cc(S(=O)(=O)c3cccc(F)c3)c12 [Example 65, N-{2-[3-(3-fluorophenylsulfonyl)-1H-indol-4-yl]ethyl}-N-propylamine] |

Same assay, conditions: Table 1; [3H]-LSD 3.0 nM, Hela cell membranes; read-out: Ki (nM) @ 5-HT6 receptor

| SMILES | Ki [nM] |
| --- | --- |
| CCN(C)CCc1cccc2[nH]cc(S(=O)(=O)c3cccc(F)c3)c12 [Example 71, N-ethyl-N-methyl-N-{2-[3-(3-fluorophenylsulfonyl)-1H-indol-4-yl]ethyl}amine] | 116 |
| CCN(CC)CCc1ccc2c(S(=O)(=O)c3ccccc3)c[nH]c2c1 [Example 97, N,N-diethyl-N-{2-[3-(phenylsulfonyl)-1H-indol-6-yl]ethyl}amine] | 12.3 |
| CN(C)CCc1ccc2[nH]cc(S(=O)(=O)c3ccccc3)c2c1 [Example 1, N,N-dimethyl-N-{2-[3-(phenylsulfonyl)-1H-indol-5-yl]ethyl}amine] | 9 |
| O=S(=O)(c1ccccc1)c1c[nH]c2c(CCNC3CCCC3)cccc12 [Example 23, N-{2-[3-(phenylsulfonyl)-1H-indol-7-yl]ethyl}cyclopentanamine] | 18 |
| O=S(=O)(c1cccc(F)c1)c1c[nH]c2cccc(CCNC3CCCCC3)c12 [Example 70, N-{2-[3-(3-fluorophenylsulfonyl)-1H-indol-4-yl]ethyl}cyclohexanamine] | 180 |
| CCN(C)CCc1cccc2c(S(=O)(=O)c3ccccc3)c[nH]c12 [Example 24, N-ethyl-N-methyl-N-{2-[3-(phenylsulfonyl)-1H-indol-7-yl]ethyl}amine] | 11 |
| O=S(=O)(c1cccc(F)c1)c1c[nH]c2cccc(CCNC3CCCC3)c12 [Example 69, N-{2-[3-(3-fluorophenylsulfonyl)-1H-indol-4-yl]ethyl}cyclopentanamine] | 78 |
| O=S(=O)(c1ccccc1)c1c[nH]c2c(CCN3CCOCC3)cccc12 [Example 28, 7-(2-morpholin-4-ylethyl)-3-(phenylsulfonyl)-1H-indole] | 99 |

More lines, now with the values ahead:

| Ki [nM] | SMILES |
| --- | --- |
| 23.5 | O=S(=O)(c1cccc(F)c1)c1c[nH]c2cccc(CCNC3CCC3)c12 [Example 68, N-{2-[3-(3-fluorophenylsulfonyl)-1H-indol-4-yl]ethyl}cyclobutanamine] |
| 18 | O=S(=O)(c1ccccc1)c1c[nH]c2c(CCN3CCCC3)cccc12 [Example 26, 3-(phenylsulfonyl)-7-(2-pyrrolidin-1-ylethyl)-1H-indole] |
| 118 | CCN(C)CCc1ccc2c(S(=O)(=O)c3ccccc3)c[nH]c2c1 [Example 95, N-ethyl-N-methyl-N-{2-[3-(phenylsulfonyl)-1H-indol-6-yl]ethyl}amine] |
| 68 | O=S(=O)(c1ccccc1)c1c[nH]c2ccc(CCN3CCNCC3)cc12 [Example 13, 3-(phenylsulfonyl)-5-(2-piperazin-1-ylethyl)-1H-indole] |
| 37 | O=S(=O)(c1ccccc1)c1c[nH]c2ccc(CCNC3CCCC3)cc12 [Example 5, N-{2-[3-(phenylsulfonyl)-1H-indol-5-yl]ethyl}cyclopentanamine] |
| 7 | CCN(C)CCc1ccc2[nH]cc(S(=O)(=O)c3ccccc3)c2c1 [Example 7, N-ethyl-N-methyl-N-{2-[3-(phenylsulfonyl)-1H-indol-5-yl]ethyl}amine] |
| 2.3 | CNCCc1cccc2c(S(=O)(=O)c3ccccc3)c[nH]c12 [Example 19, N-methyl-N-{2-[3-(phenylsulfonyl)-1H-indol-7-yl]ethyl}amine] |
| 17 | CCN(CC)CCc1ccc2[nH]cc(S(=O)(=O)c3ccccc3)c2c1 [Example 8, N,N-diethyl-N-{2-[3-(phenylsulfonyl)-1H-indol-5-yl]ethyl}amine] |

Same assay, conditions: read-out: % inhibition at 1 micromole

| SMILES | inhibition at 1 µM [%] |
| --- | --- |
| CN(C)CCc1cccc2[nH]cc(S(=O)(=O)c3cccc(F)c3)c12 [Example 62, N,N-dimethyl-N-{2-[3-(3-fluorophenylsulfonyl)-1H-indol-4-yl]ethyl}amine] | 72 |
